# Laboratory results: patent US20240000741A1, “ALL-TRANS RETINOIC ACID ENHANCES RADIOTHERAPY AND OVERCOMES IMMUNE SUPPRESSION FOR CANCER THERAPY” (The University of Chicago, priority 2022, published 2024)
# Columns and labels:
# nitrite (iNOS product) = test: Nitrite assay of tumor fragments cultured ex vivo; format: in vivo, mouse; settings: IR+RA treated tumors, day 4, 2 hours culture
# Experimental: Whole tumors were excised at indicated time point post treatment. Tumors were weighed and homogenized in PBS with the presence of protease inhibitor cocktails at a ratio of 1 ml per gram of tissue. 25 μl of supernatants were subjected to a bead-based cytokine and chemokine assay (a mouse inflammation panel and chemokine panel sold under the tradename LEGENDPLEX™ (BioLegend, San Diego, California, United States of America). The assays were analyzed using a LSRII flow cytometer and software sold under the tradename LEGENDPLEX™ (both from BioLegend, San Diego, California, United States of America). IFN-γ was measured using IFN-γ flex CBA set (BD Biosciences, Franklin Lakes, New Jersey, United States of America). TNF-α concentration was measured using ELISA kit from R&D Systems (MTA00B; Minneapolis, Minnesota, United States of America). For nitrite assay, equal weight of tumors were cut into pieces and cultured in DMEM medium for 2 hours. The production of NO in the supernatants was measured indirectly by measuring the concentration of nitrite by using the Griess reagent nitrite measurement kit (Cell Signaling Technology, Danvers, Massachusetts, United States of America; #13547).
# [1] = tested on: non-irradiated MC38 tumors; test: MC38 two-tumor model, growth of non-irradiated tumors (abscopal effect); format: in vivo, mouse; settings: RA and IR treatment of primary tumor compared to any single treatment
# Experimental: 1×10^6 MC38, B16/F1, Renca or CT26 cells were subcutaneously implanted into flanks of mice. Tumors were irradiated using a Phillips IR250 orthovoltage X-ray generator (Phillips, Amsterdam, the Netherlands) operating at 250 kV 15 mA. Subcutaneous local tumors were irradiated by shielding bodies with a cylindrical lead cover with only flank tumors exposed for radiation. ATRA (400 μg/mice/day) was administered by oral gavage for 10 days. For the two-tumor model, 1×10^6 and 0.7×10^6 MC38 cells were subcutaneously implanted into the right and left flank of mice respectively. For the tumor re-challenge assay, both the cured mice and the naive mice were re-challenged with 5×10^6 MC38 or 1×10^6 LLC cells respectively. Tumors were measured along two diameters (length and width) and depth twice weekly and volumes were calculated as length×width×depth/2. For CD8 and CD4 T cell depletion experiments, 200 μg antibodies were injected i.p. on day 0, 2, 5 and 8 after radiation. Anti-CD11b antibody was injected i.p. every two days starting 1 day before radiation. Anti-PD-L1 antibody was administered i.p. on day 0, 3, and 7 after radiation at 200 μg/mouse. Anti-IFN-γ was administered i.p. at 500 μg/mouse every 7 days. Anti-NK1.1 antibody was administered via i.p. at 25 μg/mouse every 3 days for 3 doses. Anti-GM-CSF antibody was given by i.p. injection at 250 μg/mouse every 2 days. […]
# MC38 cells = test: Direct cytotoxic/radiosensitizing effect of RA on cultured tumor cells; format: cell-based, mouse; settings: RA 0 nM to 2000 nM after IR 0 Gy to 15 Gy, three days
# Experimental: To determine whether RA has direct cytotoxic and/or radiosensitizing effects on tumor cells, MC38 cells were cultured with RA (0 nM to 2000 nM) after IR (0 Gy to 15 Gy) for three days. […] Since both IR and RA regulate immune responses, studies were conducted to examine how the combination treatment changes the tumor immune environment. Using a multiplex assay, the level of chemokines and cytokines in tumors three days after treatment was determined. Following IR+RA treatment, increased levels of CCL2, CCL3, CCL4 and CCL5 (by 2-fold to 3-fold compared to levels in any single treatment), which are involved in monocyte recruitment, were observed. GM-CSF, a critical cytokine for DC generation, increased by more than 5-fold in whole tumor homogenates.
# [2] = tested on: MC38 syngeneic subcutaneous flank tumor; test: ATRA-sensitized fractionated radiotherapy in MC38 tumor bearing C57BL/6 mice; format: in vivo, mouse; settings: 3 fractions
# Experimental: A MC38 syngeneic subcutaneous flank tumor-bearing mouse model was used for the evaluation of in vivo efficacy of ATRA-sensitized radiotherapy. 2×10^6 MC38 cells were injected into the right flank subcutaneous tissues of C57BL/6 background mice. […] After administration, mice were anaesthetized with 2% (v/v) isoflurane and the tumors were irradiated daily with X-ray at a dose of 2 Gy/fraction (225 kVp, 13 mA, 0.3 mm-Cu filter) for a total of 3 fractions. Oil (equal volume/each) was administrated daily with or without irradiation as controls. […] All the mice were sacrificed when the tumors reached about 2,000 mm^3.
# [3] = tested on: MC38 tumor in Rag1−/− mice; settings: ATRA 400 ug/each oral gavage daily plus X-ray 2 Gy/fraction, three consecutive days
# Experimental: To further study whether T cell responses are important for the antitumor efficacy of ATRA (+) treatment, 2×10^6 MC38 cells were inoculated into the right flanks of Rag1^−/− […] mice, which are deficient of T and B cells. When the tumors reached 100-120 mm^3 in volume, Rag1^−/− mice were administered 400 ug/each ATRA daily via oral gavage followed by 2 Gy/fraction X-ray on three consecutive days. The tumor size was measured with a caliper every day and the tumor volume calculated as 0.5×length×width 2. All of the mice were sacrificed when the control group tumors reached about 2000 mm^3.
# [4] = ATRA 400 μg/each oral gavage daily plus X-ray 2 Gy/fraction
smiles,measurement,setting,value
"CC1=C(/C=C/C(C)=C/C=C/C(C)=C/C(=O)O)C(C)(C)CCC1 [RA, all-trans retinoic acid]",nitrite level in culture media of tumors cultured ex vivo,nitrite (iNOS product),19.8 µM
same,growth of non-irradiated tumors,[1],slower growth rate
same,tumor cell death in vitro,MC38 cells,no direct effects
same,MC38 tumor growth,[2]; [4],greatly regressed the growth of tumors
same,mice totally free of tumors,[2]; [4],5 out of 5
same,body weight,[2]; ATRA and X-ray 2 Gy/fraction,did not lose body weight
same,time without tumor regrowth,[2]; ATRA plus X-ray 2 Gy/fraction,≥ 30 days
same,therapeutic effect on MC38 tumors in Rag1−/− mice,[3],did not show any therapeutic effect
